In patent publication US5594001A, “Polycyclic systems, and derivatives thereof, as neurotransmitter release enhancers useful in the treatment of cognitive disorders” (The DuPont Merck Pharmaceutical Company, priority 1994, dated 1997):

Assays:
[1] = test system: stimulus-induced acetylcholine release, slices from the parietal cortex; test: Neurotransmitter (ACh) release assay, rat cortex slices, K+ stimulated; type: cell-based, rat (male Wistar); settings: for EC50: Table III
Description: The neurotransmitter release activities of the compounds of this invention were determined using standard biochemical assay procedures for example, the neurotransmitter release assay as described below.
Neurotransmitter release assay.
The neurotransmitter (Ach) release activities of the compounds of this invention were determined by the assay as described by Nickolson, et al., Drug Development Research, (1990) 19: 285-300, a modification of the procedure described by Mulder, et al., Brain Res., (1974) 70: 372.
Male Wistar rats (Charies River) weighing 175-200 grams were used. Rats were decapitated and brains were dissected immediately. Slices (0.3 mm thick) from the parietal cortex were prepared (approximately 100 mg wet weight) and were incubated in 10 ml KrebsRinger medium (KR) containing NaCl (116 mM), KCl (3 mM), CaCl2 (1.3 mM), MgCl2 (1.2 mM), KH2 PO4 (1.2 mM), Na2 SO4 (1.2 mM), NaHCO3 (25.0 mM), and glucose (11.0 mM), to which was added 10 uCi ^3 H-choline (specific activity approximately 35 Ci/mM; NEN) and […] unlabeled choline to give a final concentration of one micromole. The brain preparations were incubated for 30 min. at 37° C. under a steady flow of 95% O2 /5% CO2. Under these conditions, part of the radioactive choline taken up by the preparation was converted into radioactive acetylcholine (ACh) by the cholinergic nerve endings stored in synaptic vesicles, and released upon depolarization by high potassium ion (K+) containing media.
After labelling of the ACh stores, the slices were washed three times with non-radioactive KR medium and transferred to a superfusion apparatus to measure the drug effects on ACh release. The superfusion apparatus consisted of 10 thermostated glass columns of 5 mm diameter that were provided with GF/F glass fiber filters to support the slices (approximately 10 mg tissue/column). Superfusion was carried out in KR-medium (0.3 ml/min.) containing […] hemicholine-3 (HC-3). The HC-3 prevents the reuptake of choline formed during the superfusion from phospholipids and released ACh, which would be converted into unlabeled ACh and released in preference to the preformed labeled ACh. The medium was delivered by a 25-channel peristaltic pump (Ismatec by Brinkman) and warmed to 37° C. in a thermostated stainless steel coil before entering the superfusion column. Each column was provided with a 4-way slider valve (Beckmann instruments) which allowed rapid change of low to high K+/KR-medium, and with two 10-channel 3-way valves that were used to change from drug-free to drug-containing low and high K+/KR-medium. After 15 min. of washout of non-specifically bound radioactivity, collection of 4 min. fractions was initiated. After three 4 min. collections, the original medium was changed to a KR-medium in which the KCl concentration had been increased to 25 mM (high K+ medium) (S1). Depolarization-induced stimulation of release by high K+/KR-medium lasted for 4 min. Drug free low and high K+/KR-media were then substituted by drug- and vehicle-containing low- and high-K+/KR-medium, and superfusion was continued for three 4 min. collections with low K+/KR-medium, one 4 min. collection with high K+/KR-medium (s2), and two 4 min. collections with low K+/KR-medium.
Drug was added to the media by 100-fold dilutions of appropriate concentrations of the drug (in 0.9% saline) with either low- or high-K+/KR-medium. For comparative purposes, linopirdine was also run.
All superfusion fractions were collected in liquid scintillation counting vials. After superfusion, the slices were removed from the superfusion columns and extracted with 1.0 ml of 0.1N HCl. Liquiscint (NEN) counting fluid (12 ml) was added to superfusion fractions and extracts, and the samples were counted in a Packard Tricarb Liquid Scintillation Counter. No corrections were made for quenching. […]

[2] = test system: ACh level in the rat hippocampus; test: Microdialysis, ACh levels in the rat hippocampus in vivo; set-up: species or system rat (male Wistar); settings: for AUC, Area % under the curve / Peak, maximal % increase of ACh release over baseline / time of Peak after administration / Duration, minutes of release above statistical significance: Table IV; for Duration, minutes of release above statistical significance: NSP = no significant points
Description: Male Wistar Rats are anaesthetized and guide cannulas stereotaxically implanted into the brain at the level of the dorsal hippocampus. Following a minimum recovery period of 72 h, dialysis probes (0.5 mm diameter, 4.0 mm long, from BAS) are inserted into the hippocampus through the guide cannulas. The probes are perfused at a rate of 2 μl/min with artificial cerebrospinal fluid containing 100 μM physostigmine sulfate (a cholinesterase inhibitor). Rats are allowed to acclimate for 2 hours prior to sample collection. Dialysate samples are collected every 20 min (40 μl) and immediately injected onto a high performance liquid chromatograph equipped for electrochemical detection (HPLC-EC) of acetylcholine (ACh). Following collection of 3 baseline samples, drugs or vehicle control are administered in 0.01 ml/g body weight and dialysate samples are collected for an additional 3 h. The ACh peak heights of the 3 samples prior to drug administration are averaged together to determine baseline ACh levels. ACh peak heights post drug administration are measured and used to determine percent change over baseline ACh levels. At the end of experiments, probe placement is verified histologically.
ACh is separated by reverse phase chromatography (Hamilton PRP-1 column 150×4.5 mm) and converted to acetate, betaine and hydrogen peroxide on an immobilized enzyme reactor column (BAS). Hydrogen peroxide is then detected electrochemically. Mobile phase for the chromatography consists of 0.2M Na2 HPO4, 0.1 mM EDTA, 0.5 mM SOS, 0.9 mM TMA.Cl, with pH adjusted to 8.0 with phosphoric acid and […] Kathon CG (ESA) added to each liter of mobile phase to retard bacterial growth.
FIGS. 1 and 2 show the effects of fluorine substitution to the pendant groups of the anthrone and azafluorene core series on the ability of compounds to increase the level of ACh in the rat hippocampus in vivo. All compounds were tested at 5 mg/kg except Ex. No 64 which was administered at 1 mg/kg. […] This was observed even though the compound was administered by a route (i.p.) which should lead to greater bioavailability than the oral route. Example 68 of the present invention, the bis-fluorinated analog of Example 611 or U.S. Pat. No. 5,173,489, on the other hand, led to a 2-fold increase in ACh levels which was maintained for over 1 hour (FIG. 1). The anthrone compound Ex. No. 440 of U.S. Pat. No. 5,173,489, at 5 mg/kg, led to a peak ACh level of 72% over baseline (FIG. 2). Ex. No. 64 of the present invention, which is the bis-fluoro analog of Ex. No. 440 of U.S. Pat. No. 5,173,489, at 1 mg/kg, led to a delayed increase in ACh levels reaching a peak of over 100% above baseline (FIG. 2). In contrast to the observed effects of Example 440 of U.S. Pat. No. 5,173,489, the increase in ACh level after administration of Example 64 of the present invention was maintained for the entire duration of testing (3 hours).

SMILES | EC50 [1] | AUC, Area % under the curve ([2]; 1 mg/kg, vehicle methocel) | Peak, maximal % increase of ACh release over baseline ([2]; 1 mg/kg, vehicle methocel) | time of Peak after administration ([2]; 1 mg/kg, vehicle methocel) | Duration, minutes of release above statistical significance ([2]; 1 mg/kg, vehicle methocel) | AUC, Area % under the curve ([2]; 5 mg/kg, vehicle methocel) | Peak, maximal % increase of ACh release over baseline ([2]; 5 mg/kg, vehicle methocel) | time of Peak after administration ([2]; 5 mg/kg, vehicle methocel) | Duration, minutes of release above statistical significance ([2]; 5 mg/kg, vehicle methocel) | AUC, Area % under the curve ([2]; 5 mg/kg, vehicle water) | Peak, maximal % increase of ACh release over baseline ([2]; 5 mg/kg, vehicle water) | time of Peak after administration ([2]; 5 mg/kg, vehicle water) | Duration, minutes of release above statistical significance ([2]; 5 mg/kg, vehicle water) | further results
Fc1cc(CC2(Cc3ccnc(F)c3)c3ccccc3-c3ncccc32)ccn1 [Example 68, 5,5-Bis((2-fluoro-4-pyridinyl)methyl)-5H-indeno[1,2-b]pyridine] | 760 nM | 304 ± 88% | 74 ± 29% | 100 min | 120 min | 942 ± 324% | 201 ± 68% | 80 min | > 80 min | 871 ± 272% | 121 ± 25% | 100 min | 120 min | increase in ACh levels ([2]; 5 mg/kg oral, FIG. 1): 2 fold; time for which the increase in ACh levels was maintained ([2]; 5 mg/kg oral, FIG. 1): over 1 hour; AUC, Area % under the curve ([2]; 2 mg/kg, vehicle water): 240 ± 82%; Peak, maximal % increase of ACh release over baseline ([2]; 2 mg/kg, vehicle water): 47 ± 12%; time of Peak after administration ([2]; 2 mg/kg, vehicle water): 40 min
Fc1cc(CC2(Cc3ccnc(F)c3)c3ccccc3Oc3ncccc32)ccn1 [Example 67, 9,9-Bis((2-fluoro-4-pyridinyl)methyl)-4-azaxanthene] | 640 nM | 666 ± 212% | 123 ± 62% | 200 min | > | 1423 ± 595% | 199 ± 80% | 160 min | > | – | – | – | – | –
COc1ccc2c(c1)C(Cc1ccnc(F)c1)(Cc1ccnc(F)c1)c1ccccc1-2 [Example 71, 9,9-Bis((2-fluoro-4-pyridinyl)methyl)-2-methoxyfluorene] | 1240 nM | – | – | – | – | 126 ± 74% | 34 ± 16% | 60 min | NSP | – | – | – | – | –
Fc1cc(CC2(Cc3ccnc(F)c3)c3cccnc3-c3sccc32)ccn1 [Example 69, 4,4-Bis((2-fluoro-4-pyridinyl)methyl)-4H-thieno[3',2':4,5]cyclopenta[1,2-b]pyridine] | 650 nM | – | – | – | – | – | – | – | – | 285 ± 40% | 44 ± 14% | 20 min | 40 min | –
Fc1cc(CC2(Cc3ccncc3)c3ccccc3-c3sccc32)ccn1 (stereo not drawn) [Example 7, 2-Fluoro-4-[4-(4-pyridinylmethyl)-4H-indeno[1,2-B]thiophen-4-ylmethyl]-pyridine] | – | – | – | – | – | – | – | – | – | 235 ± 87% | 53 ± 19% | 180 min | NSP | activation at 10 µM ([1]; Table II, 10 μM, % increase of drug-induced ACh release): 439%
O=C1c2ccccc2C(Cc2ccnc(F)c2)(Cc2ccnc(F)c2)c2ccccc21 [Example 64, 10,10-Bis((2-fluoro-4-pyridinyl)methyl)-9(10H)-anthracenone] | 660 nM | 711 ± 158% | 115 ± 27% | 180 min | > | – | – | – | – | – | – | – | – | peak ACh level above baseline ([2]; 1 mg/kg oral, FIG. 2, delayed increase): over 100%; time for which the increase in ACh level was maintained ([2]; 1 mg/kg oral, FIG. 2, entire duration of testing): ≥ 3 h; AUC, Area % under the curve ([2]; 0.5 mg/kg, vehicle methocel): 253 ± 156%; Peak, maximal % increase of ACh release over baseline ([2]; 0.5 mg/kg, vehicle methocel): 40 ± 21%; time of Peak after administration ([2]; 0.5 mg/kg, vehicle methocel): 40 min; Duration, minutes of release above statistical significance ([2]; 0.5 mg/kg, vehicle methocel): NSP
Fc1cc(CC2(Cc3ccnc(F)c3)c3ccccc3-c3ncncc32)ccn1 [Example 81, 5,5-Bis((2-fluoro-4-pyridinyl)methyl)-5H-indeno-[1,2-d]pyrimidine] | 640 nM | – | – | – | – | 250 ± 68% | 53 ± 17% | 60 min | 100 min | – | – | – | – | –
COc1ccc2c(c1)C(Cc1ccnc(F)c1)(Cc1ccnc(F)c1)c1cccnc1O2 [Example 72, 9,9-Bis((2-fluoro-4-pyridinyl)methyl)-7-methoxy-4-azaxanthene] | 850 nM | – | – | – | – | 138 ± 109% | 34 ± 22% | 60 min | NSP | – | – | – | – | –
